IC50 data for 17 compounds are collected here from patent US10308639B2, “Phosphatidylinositol 3-kinase inhibitors” (Gilead Sciences, Inc., priority 2014, dated 2019).

Common to all, as to type: biochemical
The target of one assay is T1, PI3Kβ (Homo sapiens, UniProt P42338).
T1 construct: made in house
Put plainly: TR-FRET enzymatic activity assay, PI3Kβ. The conditions noted are these: Table 2a; same assay. In general terms: Time-resolved FRET reads energy transfer from a long-lived donor to a nearby acceptor.

Another assay deals with T2, PI3Kγ (Homo sapiens, UniProt P48736).
T2 construct: made in house
As to the kind of experiment: TR-FRET enzymatic activity assay, PI3Kγ. The note with it: Table 2a; same assay; read-out: PI3Kγ IC50. Summed up:
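TR-FRET read-out of enzyme activity, run separately for each PI3K isoform.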

The next assay has as its target T3, PI3Kδ (Homo sapiens, UniProt O00329).
T3 construct: made in house
As to the kind of experiment: TR-FRET enzymatic activity assay, PI3Kδ. The note with it: Table 2a; same assay.

SMILES strings stand for the structures.

A word on the IC50: it is the midpoint of a concentration-inhibition curve.

T3 sequence (O00329 whole entry): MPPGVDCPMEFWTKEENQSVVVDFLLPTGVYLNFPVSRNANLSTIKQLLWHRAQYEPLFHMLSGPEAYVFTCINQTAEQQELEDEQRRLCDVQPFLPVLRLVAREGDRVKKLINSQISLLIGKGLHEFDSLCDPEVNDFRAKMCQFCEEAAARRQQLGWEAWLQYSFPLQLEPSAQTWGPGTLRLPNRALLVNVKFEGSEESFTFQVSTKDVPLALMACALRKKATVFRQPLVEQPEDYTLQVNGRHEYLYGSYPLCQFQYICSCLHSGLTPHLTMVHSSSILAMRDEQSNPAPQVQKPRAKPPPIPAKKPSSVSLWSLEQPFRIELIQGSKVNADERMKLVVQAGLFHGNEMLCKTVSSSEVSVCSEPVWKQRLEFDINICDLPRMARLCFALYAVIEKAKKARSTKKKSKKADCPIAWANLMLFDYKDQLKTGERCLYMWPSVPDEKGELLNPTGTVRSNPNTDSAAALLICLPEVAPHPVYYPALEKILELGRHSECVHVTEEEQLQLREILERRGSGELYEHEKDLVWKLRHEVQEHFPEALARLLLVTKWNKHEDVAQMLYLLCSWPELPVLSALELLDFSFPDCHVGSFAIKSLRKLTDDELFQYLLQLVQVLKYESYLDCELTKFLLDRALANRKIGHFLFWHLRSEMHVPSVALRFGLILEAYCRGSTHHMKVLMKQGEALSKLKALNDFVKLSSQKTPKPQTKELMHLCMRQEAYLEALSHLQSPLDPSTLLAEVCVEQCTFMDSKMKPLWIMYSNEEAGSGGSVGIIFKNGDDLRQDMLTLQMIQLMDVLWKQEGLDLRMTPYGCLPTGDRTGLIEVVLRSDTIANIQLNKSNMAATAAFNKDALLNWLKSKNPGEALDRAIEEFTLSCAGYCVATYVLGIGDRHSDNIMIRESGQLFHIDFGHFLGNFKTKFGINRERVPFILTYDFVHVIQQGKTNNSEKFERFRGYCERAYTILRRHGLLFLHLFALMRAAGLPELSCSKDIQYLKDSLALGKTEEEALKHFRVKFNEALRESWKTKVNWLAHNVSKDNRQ
T3 sequence (P27986 whole entry partner): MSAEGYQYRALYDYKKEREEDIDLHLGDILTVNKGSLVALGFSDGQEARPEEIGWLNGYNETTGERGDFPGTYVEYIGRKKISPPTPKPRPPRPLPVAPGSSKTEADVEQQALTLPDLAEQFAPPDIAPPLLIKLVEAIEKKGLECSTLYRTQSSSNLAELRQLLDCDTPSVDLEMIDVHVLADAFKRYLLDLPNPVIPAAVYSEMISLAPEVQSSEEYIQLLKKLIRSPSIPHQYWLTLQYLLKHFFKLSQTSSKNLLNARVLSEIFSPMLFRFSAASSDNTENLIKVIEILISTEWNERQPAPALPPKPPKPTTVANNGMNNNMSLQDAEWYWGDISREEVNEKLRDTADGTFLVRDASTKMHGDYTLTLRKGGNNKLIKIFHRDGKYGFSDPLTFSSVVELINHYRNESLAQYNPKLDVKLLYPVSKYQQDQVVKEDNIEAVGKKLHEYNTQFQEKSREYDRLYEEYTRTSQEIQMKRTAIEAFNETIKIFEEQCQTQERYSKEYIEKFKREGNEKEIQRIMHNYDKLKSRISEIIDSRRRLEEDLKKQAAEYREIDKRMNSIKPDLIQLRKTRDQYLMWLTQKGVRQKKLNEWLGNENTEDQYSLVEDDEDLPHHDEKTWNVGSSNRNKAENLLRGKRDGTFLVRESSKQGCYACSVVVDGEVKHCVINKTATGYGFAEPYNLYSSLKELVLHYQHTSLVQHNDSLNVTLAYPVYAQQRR
T2 sequence (P48736 whole entry): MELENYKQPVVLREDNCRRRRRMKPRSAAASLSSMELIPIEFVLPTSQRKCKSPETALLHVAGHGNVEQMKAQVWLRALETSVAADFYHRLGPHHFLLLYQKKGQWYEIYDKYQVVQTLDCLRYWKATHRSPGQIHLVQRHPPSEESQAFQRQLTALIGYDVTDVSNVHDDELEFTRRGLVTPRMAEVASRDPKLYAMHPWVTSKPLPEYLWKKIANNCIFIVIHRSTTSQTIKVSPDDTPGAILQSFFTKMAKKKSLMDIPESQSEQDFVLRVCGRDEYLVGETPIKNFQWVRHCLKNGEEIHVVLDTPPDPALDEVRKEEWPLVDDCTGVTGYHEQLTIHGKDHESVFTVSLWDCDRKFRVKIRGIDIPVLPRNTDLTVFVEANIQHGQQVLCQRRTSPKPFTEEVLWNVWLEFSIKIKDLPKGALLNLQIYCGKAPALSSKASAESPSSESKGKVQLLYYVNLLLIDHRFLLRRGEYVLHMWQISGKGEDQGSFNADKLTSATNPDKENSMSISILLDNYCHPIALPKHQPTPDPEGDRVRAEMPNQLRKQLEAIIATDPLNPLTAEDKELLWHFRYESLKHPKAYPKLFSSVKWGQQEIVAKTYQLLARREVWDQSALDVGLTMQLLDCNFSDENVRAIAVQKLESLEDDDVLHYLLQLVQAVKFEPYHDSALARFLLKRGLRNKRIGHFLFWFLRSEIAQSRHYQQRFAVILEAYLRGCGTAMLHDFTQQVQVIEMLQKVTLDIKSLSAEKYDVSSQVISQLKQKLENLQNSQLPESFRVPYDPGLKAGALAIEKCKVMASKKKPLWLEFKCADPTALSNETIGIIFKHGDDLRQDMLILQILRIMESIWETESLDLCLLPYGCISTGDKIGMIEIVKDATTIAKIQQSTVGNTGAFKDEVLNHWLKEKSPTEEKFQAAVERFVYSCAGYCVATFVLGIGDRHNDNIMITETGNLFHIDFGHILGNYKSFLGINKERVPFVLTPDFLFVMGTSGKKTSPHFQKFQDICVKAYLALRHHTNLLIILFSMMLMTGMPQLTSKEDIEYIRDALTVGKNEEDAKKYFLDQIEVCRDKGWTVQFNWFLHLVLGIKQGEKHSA
T1 sequence (P42338 whole entry): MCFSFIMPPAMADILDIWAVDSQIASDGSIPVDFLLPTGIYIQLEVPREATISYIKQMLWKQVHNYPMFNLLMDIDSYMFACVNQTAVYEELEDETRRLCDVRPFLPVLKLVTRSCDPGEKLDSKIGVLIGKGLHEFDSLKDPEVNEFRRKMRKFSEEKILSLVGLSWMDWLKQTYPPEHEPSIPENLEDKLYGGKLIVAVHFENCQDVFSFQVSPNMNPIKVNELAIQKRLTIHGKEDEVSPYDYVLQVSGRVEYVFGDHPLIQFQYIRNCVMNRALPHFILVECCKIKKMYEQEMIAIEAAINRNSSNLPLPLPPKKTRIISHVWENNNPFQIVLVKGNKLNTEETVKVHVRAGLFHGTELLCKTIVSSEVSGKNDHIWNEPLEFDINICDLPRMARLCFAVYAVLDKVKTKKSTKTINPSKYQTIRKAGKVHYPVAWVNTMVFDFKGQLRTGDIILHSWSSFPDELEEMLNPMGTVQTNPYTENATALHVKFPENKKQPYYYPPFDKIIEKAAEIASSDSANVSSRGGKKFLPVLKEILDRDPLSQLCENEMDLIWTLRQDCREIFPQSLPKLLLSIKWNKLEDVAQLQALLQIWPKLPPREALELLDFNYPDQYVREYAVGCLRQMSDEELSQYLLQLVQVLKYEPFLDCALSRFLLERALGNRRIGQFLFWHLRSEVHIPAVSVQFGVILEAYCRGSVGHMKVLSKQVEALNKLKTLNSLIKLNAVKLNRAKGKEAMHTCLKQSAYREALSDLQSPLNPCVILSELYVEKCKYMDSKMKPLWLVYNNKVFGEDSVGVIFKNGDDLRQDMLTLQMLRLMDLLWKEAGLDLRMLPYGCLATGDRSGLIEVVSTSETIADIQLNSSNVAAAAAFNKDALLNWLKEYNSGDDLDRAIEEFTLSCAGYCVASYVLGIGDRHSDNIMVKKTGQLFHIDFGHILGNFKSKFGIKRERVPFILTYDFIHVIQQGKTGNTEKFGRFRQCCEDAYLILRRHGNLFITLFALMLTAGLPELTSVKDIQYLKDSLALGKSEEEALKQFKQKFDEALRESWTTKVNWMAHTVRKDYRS
T1 sequence (P27986 whole entry partner): as the sequence (P27986 whole entry partner) above

As for `C[C@H](Nc1nc(N)nc(N)c1Cl)c1nc2ccc(F)c(Cl)c2c(=O)n1-c1cn[nH]c1` [Compound 263, (S)-5-chloro-2-(1-((2,6-diamino-5-chloropyrimidin-4-yl)amino)ethyl)-6-fluoro-3-(1H-pyrazol-4-yl)quinazolin-4(3H)-one], the values for the IC50 against PI3Kβ, on PI3Kγ and against PI3Kδ were 190 nM, 1200 nM and 20 nM, respectively.

Regarding `C[C@H](Nc1nc(N)nc(N)c1C#N)c1nc2ccc(F)c(Cl)c2c(=O)n1-c1cn[nH]c1` [Compound 264, (S)-2,4-diamino-6-((1-(5-chloro-6-fluoro-4-oxo-3-(1H-pyrazol-4-yl)-3,4-dihydroquinazolin-2-yl)ethyl)amino)pyrimidine-5-carbonitrile], the half-maximal inhibitory concentration (IC50) came out at 8 nM at PI3Kβ, 71 nM on PI3Kγ and 2 nM against PI3Kδ.

In the case of `C[C@H](Nc1nc(N)nc(N)c1Cl)c1nc2c(Cl)cc(F)cc2c(=O)n1-c1cn[nH]c1` [Compound 265, (S)-8-chloro-2-(1-((2,6-diamino-5-chloropyrimidin-4-yl)amino)ethyl)-6-fluoro-3-(1H-pyrazol-4-yl)quinazolin-4(3H)-one], the IC50 at PI3Kβ came to 180 nM; on PI3Kγ it was 3100 nM; against PI3Kδ, 31 nM.

As for `C[C@H](Nc1nc(N)nc(N)c1C#N)c1nc2c(Cl)cc(F)cc2c(=O)n1-c1cn[nH]c1` [Compound 266, (S)-2,4-diamino-6-((1-(8-chloro-6-fluoro-4-oxo-3-(1H-pyrazol-4-yl)-3,4-dihydroquinazolin-2-yl)ethyl)amino)pyrimidine-5-carbonitrile], the results for the IC50 at PI3Kβ, on PI3Kγ and against PI3Kδ were 4 nM, 84 nM and 1 nM, respectively.

Take `CCC[C@H](Nc1nc(N)nc(N)c1Cl)c1nc2ccc(F)c(Cl)c2c(=O)n1-c1cc[nH]n1` [Compound 267, (S)-5-chloro-2-(1-((2,6-diamino-5-chloropyrimidin-4-yl)amino)butyl)-6-fluoro-3-(1H-pyrazol-3-yl)quinazolin-4(3H)-one]: the IC50 was 120 nM against PI3Kβ, greater than 10000 nM at PI3Kγ and 27 nM against PI3Kδ.

As for `CCC[C@H](Nc1nc(N)nc(N)c1C#N)c1nc2ccc(F)c(Cl)c2c(=O)n1-c1cc[nH]n1` [Compound 268, (S)-2,4-diamino-6-((1-(5-chloro-6-fluoro-4-oxo-3-(1H-pyrazol-3-yl)-3,4-dihydroquinazolin-2-yl)butyl)amino)pyrimidine-5-carbonitrile], the IC50 at PI3Kβ is 5 nM; at PI3Kγ it was 900 nM; against PI3Kδ, 2 nM.

Take `N#Cc1c(N)nc(N)nc1N[C@H](c1nc2c(Cl)cc(F)cc2c(=O)n1-c1cn[nH]c1)C1CC1` [Compound 269, (S)-2,4-diamino-6-(((8-chloro-6-fluoro-4-oxo-3-(1H-pyrazol-4-yl)-3,4-dihydroquinazolin-2-yl)(cyclopropyl)methyl)amino)pyrimidine-5-carbonitrile]: the IC50 against PI3Kβ turned out to be 0.9 nM; on PI3Kγ, 170 nM; on PI3Kδ, 1 nM.

Take `C[C@H](Nc1nc(N)nc(N)c1Cl)c1nc2c(Cl)cc(F)cc2c(=O)n1-c1n[nH]cc1Br` [Compound 270, (S)-3-(4-bromo-1H-pyrazol-3-yl)-8-chloro-2-(1-((2,6-diamino-5-chloropyrimidin-4-yl)amino)ethyl)-6-fluoroquinazolin-4(3H)-one]: the IC50 against PI3Kβ was 2300 nM; at PI3Kγ, greater than 10000 nM; on PI3Kδ it was 26 nM.

Consider `C[C@H](Nc1nc(N)nc(N)c1Cl)c1nc2c(C#N)cc(F)cc2c(=O)n1-c1cc[nH]n1` [Compound 271, (S)-2-(1-((2,6-diamino-5-chloropyrimidin-4-yl)amino)ethyl)-6-fluoro-4-oxo-3-(1H-pyrazol-3-yl)-3,4-dihydroquinazoline-8-carbonitrile], for which the IC50 is 28 nM against PI3Kβ, greater than 10000 nM at PI3Kγ and 18 nM against PI3Kδ.

Take `C[C@H](Nc1nc(N)nc(N)c1C#N)c1nc2c(C#N)cc(F)cc2c(=O)n1-c1cc[nH]n1` [Compound 272, (S)-2-(1-((2,6-diamino-5-cyanopyrimidin-4-yl)amino)ethyl)-6-fluoro-4-oxo-3-(1H-pyrazol-3-yl)-3,4-dihydroquinazoline-8-carbonitrile]: the IC50 at PI3Kβ is 1 nM; at PI3Kγ, 2700 nM; against PI3Kδ, 0.9 nM.

For the compound `N#Cc1cc(F)cc2c(=O)n(-c3cc[nH]n3)c([C@@H](Nc3nc(N)nc(N)c3Cl)C3CC3)nc12` [Compound 273, (S)-2-(cyclopropyl((2,6-diamino-5-chloropyrimidin-4-yl)amino)methyl)-6-fluoro-4-oxo-3-(1H-pyrazol-3-yl)-3,4-dihydroquinazoline-8-carbonitrile], the IC50 against PI3Kβ was 18 nM; at PI3Kγ, greater than 10000 nM; on PI3Kδ it was 21 nM.

For `C[C@H](Nc1nc(N)nc(N)c1C#N)c1nc2ccccc2c(=O)n1-c1cc[nH]n1` [Compound 274, (S)-2,4-diamino-6-((1-(4-oxo-3-(1H-pyrazol-3-yl)-3,4-dihydroquinazolin-2-yl)ethyl)amino)pyrimidine-5-carbonitrile], the figures for the IC50 against PI3Kβ, on PI3Kγ and against PI3Kδ were 2 nM, 760 nM and 3 nM, respectively.

On to `C[C@H](Nc1nc(N)nc(N)c1Cl)c1nc2ccccc2c(=O)n1-c1cc[nH]n1` [Compound 275, (S)-2-(1-((2,6-diamino-5-chloropyrimidin-4-yl)amino)ethyl)-3-(1H-pyrazol-3-yl)quinazolin-4(3H)-one], for which the half-inhibitory concentration (IC50) against PI3Kβ was 46 nM; at PI3Kγ it was greater than 10000 nM; against PI3Kδ, 40 nM.

Regarding `C[C@H](NC(=O)c1nc(Cl)c(N)nc1N)c1nc2cccc(Cl)c2c(=O)n1-c1cc[nH]n1` [Compound 276, (S)-3,5-diamino-6-chloro-N-(1-(5-chloro-4-oxo-3-(1H-pyrazol-3-yl)-3,4-dihydroquinazolin-2-yl)ethyl)pyrazine-2-carboxamide], the figures for the IC50 on PI3Kβ, at PI3Kγ and on PI3Kδ were 20 nM, 280 nM and 36 nM, respectively.

Take `C[C@H](NC(=O)c1nc(Cl)c(N)nc1N)c1nc2c(F)ccc(Cl)c2c(=O)n1-c1cc[nH]n1` [Compound 277, (S)-3,5-diamino-6-chloro-N-(1-(5-chloro-8-fluoro-4-oxo-3-(1H-pyrazol-3-yl)-3,4-dihydroquinazolin-2-yl)ethyl)pyrazine-2-carboxamide]: the IC50 on PI3Kβ amounted to 43 nM; on PI3Kγ, 390 nM; against PI3Kδ, 50 nM.

Take `C[C@H](NC(=O)c1nc(Cl)c(N)nc1N)c1nc2c(F)ccc(Cl)c2c(=O)n1-c1cn[nH]c1` [Compound 278, (S)-3,5-diamino-6-chloro-N-(1-(5-chloro-8-fluoro-4-oxo-3-(1H-pyrazol-4-yl)-3,4-dihydroquinazolin-2-yl)ethyl)pyrazine-2-carboxamide]: the values for the IC50 on PI3Kβ, on PI3Kγ and at PI3Kδ were 83 nM, 590 nM and 53 nM, respectively.

For `C[C@H](Nc1nc(N)nc(N)c1C#N)c1nc2c(Cl)cc(F)cc2c(=O)n1-c1cc[nH]n1` [Compound 279, (S)-2,4-diamino-6-((1-(8-chloro-6-fluoro-4-oxo-3-(1H-pyrazol-3-yl)-3,4-dihydroquinazolin-2-yl)ethyl)amino)pyrimidine-5-carbonitrile], the values for the IC50 on PI3Kβ, at PI3Kγ and against PI3Kδ were 1 nM, 710 nM and 0.2 nM, respectively.
